In this assay the target is T1, Human 5-lipoxygenase (Homo sapiens, UniProt P09917).
T1 construct: purchased Cayman 60402; host or cells: insect cells
T1 sequence (P09917 1-674): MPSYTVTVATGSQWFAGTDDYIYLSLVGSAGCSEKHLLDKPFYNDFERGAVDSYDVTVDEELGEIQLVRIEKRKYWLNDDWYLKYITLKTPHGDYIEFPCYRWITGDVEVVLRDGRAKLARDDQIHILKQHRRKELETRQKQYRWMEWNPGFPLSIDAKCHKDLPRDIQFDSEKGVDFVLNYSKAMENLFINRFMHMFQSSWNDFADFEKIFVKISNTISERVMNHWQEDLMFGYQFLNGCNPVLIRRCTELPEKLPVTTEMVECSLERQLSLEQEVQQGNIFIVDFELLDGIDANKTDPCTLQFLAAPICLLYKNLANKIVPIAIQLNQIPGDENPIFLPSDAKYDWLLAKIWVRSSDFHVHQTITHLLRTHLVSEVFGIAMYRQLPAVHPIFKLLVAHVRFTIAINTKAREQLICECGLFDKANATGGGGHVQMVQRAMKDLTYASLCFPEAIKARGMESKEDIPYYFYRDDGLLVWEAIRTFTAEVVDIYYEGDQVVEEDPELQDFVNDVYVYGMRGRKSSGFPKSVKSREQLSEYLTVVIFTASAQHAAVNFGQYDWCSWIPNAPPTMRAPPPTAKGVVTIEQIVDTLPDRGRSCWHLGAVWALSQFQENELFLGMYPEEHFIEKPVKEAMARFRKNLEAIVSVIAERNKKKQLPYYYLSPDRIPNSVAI
Kind of assay: Activity of compounds against 5-LO enzyme (LTB4 measurement and/or fluorescence method). Type of assay: biochemical. Particulars: for inhibition at 10 µM: 5-LO, single concentration of 10 uM in duplicate; for pIC50: 6 or 11 point dose response in duplicate. An outline of the steps:
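Two read-outs: LTB4 measured by EIA and/or LC/MS/MS with LTB4-d4 standard after 15 min RT compound preincubation with insect-cell 5-LO and a 5 min 37 °C reaction on 3 uM arachidonic acid (0.1 mM ATP, pH 7.4). The room-temperature fluorescence format used 20 uM H2DCFDA, 100 uM ATP, 3 uM arachidonic acid, 5 min; IC50 from 6/11-point curves.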

The inhibition is the drop in the measured response relative to a control, in per cent. In general, pIC50 refers to the negative decadic logarithm of the IC50, by convention in mol/L.

pIC50: −log10 of the molar value.

Regarding `CCc1nc2ccc(C(F)(F)F)cn2c1C(=O)NCc1ccc(N2CCC(Oc3ccc(OC(F)(F)F)cc3)CC2)cc1` [compound 124, 2-Ethyl-N-(4-(4-(4-(trifluoromethoxy)phenoxy)piperidin-1-yl)benzyl)-6-(trifluoromethyl)imidazo[1,2-a]pyridine-3-carboxamide], the inhibition at 10 µM is over 69% and the pIC50 is 4.70 to 6.00.

As to `CCc1nc2cc(Cl)ccn2c1C(=O)NCc1ccc(Oc2ccc(F)cc2)cc1` [compound 129, 7-Chloro-2-ethyl-N-(4-(4-fluorophenoxy)benzyl)imidazo[1,2-a]pyridine-3-carboxamide], the inhibition at 10 µM fell in the range of 40 to 69%.

`CCc1nc2ccc(Cl)cn2c1C(=O)NCc1ccc(N2CCN(Cc3ccc(F)cc3)CC2)cc1` [compound 130, 6-Chloro-2-ethyl-N-(4-(4-(4-fluorobenzyl)piperazin-1-yl)benzyl)imidazo[1,2-a]pyridine-3-carboxamide]: the inhibition at 10 µM was over 69% and the pIC50 is 4.70 to 6.00.

Molecule `CCc1nc2ccc(Cl)cn2c1C(=O)NCc1ccc(Oc2ccc(OC(F)(F)F)cc2)cc1` [compound 131, 6-Chloro-2-ethyl-N-(4-(4-(trifluoromethoxy)phenoxy)benzyl)imidazo[1,2-a]pyridine-3-carboxamide] yielded an inhibition at 10 µM of 40 to 69%.

Regarding `CCc1nc2ccc(Cl)cn2c1C(=O)NCc1ccn(-c2ccc(OC(F)(F)F)cc2)n1` [compound 132, 6-Chloro-2-ethyl-N-((1-(4-(trifluoromethoxy)phenyl)-1H-pyrazol-3-yl)methyl)imidazo[1,2-a]pyridine-3-carboxamide], the inhibition at 10 µM fell in the range of 40 to 69%.

Molecule `CCc1nc2cc(Cl)ccn2c1C(=O)NCc1ccn(-c2ccc(OC(F)(F)F)cc2)n1` [compound 133, 7-Chloro-2-ethyl-N-((1-(4-(trifluoromethoxy)phenyl)-1H-pyrazol-3-yl)methyl)imidazo[1,2-a]pyridine-3-carboxamide] displayed an inhibition at 10 µM of 40 to 69%.

In turn, `CCc1nc2ccc(Cl)cn2c1CNc1ccc(OC(F)(F)F)cc1` [compound 144, N-((6-Chloro-2-ethylimidazo[1,2-a]pyridin-3-yl)methyl)-4-(trifluoromethoxy)aniline] came in with an inhibition at 10 µM of 40 to 69%.

`CCc1nc2ccc(Cl)cn2c1C(=O)NCC1CCCc2c1cnn2-c1ccc(OC(F)(F)F)cc1` (stereo not shown) [compound 147, 6-Chloro-2-ethyl-N-((1-(4-(trifluoromethoxy)phenyl)-4,5,6,7-tetrahydro-1H-indazol-4-yl)methyl)imidazo[1,2-a]pyridine-3-carboxamide] displayed an inhibition at 10 µM of 40 to 69%.

Take `CCc1nc2ccc(Cl)cn2c1C(=O)NCc1ccc(N2CCN(c3ccc(F)cc3)CC2)cc1` [compound 148, 6-Chloro-2-ethyl-N-(4-(4-(4-fluorophenyl)piperazin-1-yl)benzyl)imidazo[1,2-a]pyridine-3-carboxamide]: the inhibition at 10 µM was in the range of 40 to 69% and the pIC50 is 4.70 to 6.00.

Regarding `CCc1nc2ccc(Cl)cn2c1C(=O)NCC1CCCc2c1cnn2-c1ccc(F)cc1` (stereo not shown) [compound 149, 6-Chloro-2-ethyl-N-((1-(4-fluorophenyl)-4,5,6,7-tetrahydro-1H-indazol-4-yl)methyl)imidazo[1,2-a]pyridine-3-carboxamide], the inhibition at 10 µM was 40 to 69%.

In the case of `CCc1nc2cc([N+](=O)[O-])ccn2c1C(=O)NCc1ccc(OC(F)(F)F)cc1` [compound 150, 2-Ethyl-7-nitro-N-(4-(trifluoromethoxy)benzyl)imidazo[1,2-a]pyridine-3-carboxamide], the inhibition at 10 µM fell in the range of 40 to 69%.

Take `CCc1nc2ccc(Cl)cn2c1C(=O)NCc1ccn(-c2ccc(C(F)(F)F)cc2)n1` [compound 151, 6-Chloro-2-ethyl-N-((1-(4-(trifluoromethyl)phenyl)-1H-pyrazol-3-yl)methyl)imidazo[1,2-a]pyridine-3-carboxamide]: the inhibition at 10 µM was under 40%.

The molecule `CCc1nc2cc(Cl)ccn2c1C(=O)NCc1ccn(-c2ccc(C(F)(F)F)cc2)n1` [compound 152, 7-Chloro-2-ethyl-N-((1-(4-(trifluoromethyl)phenyl)-1H-pyrazol-3-yl)methyl)imidazo[1,2-a]pyridine-3-carboxamide] displayed an inhibition at 10 µM of 40 to 69%.

Turning to `CCc1nc2ccc(Cl)cn2c1C(=O)NCc1ccn(-c2ccc(F)cc2)n1` [compound 153, 6-Chloro-2-ethyl-N-((1-(4-fluorophenyl)-1H-pyrazol-3-yl)methyl)imidazo[1,2-a]pyridine-3-carboxamide], the inhibition at 10 µM is under 40%.

Molecule `CCc1nc2cc(Cl)ccn2c1C(=O)NCc1ccn(-c2ccc(F)cc2)n1` [compound 154, 7-Chloro-2-ethyl-N-((1-(4-fluorophenyl)-1H-pyrazol-3-yl)methyl)imidazo[1,2-a]pyridine-3-carboxamide] yielded an inhibition at 10 µM of under 40%.

Molecule `CCc1nc2ccc(Cl)cn2c1C(=O)N(C)Cc1ccc(Oc2ccc(F)cc2)cc1` [compound 164, 6-Chloro-2-ethyl-N-(4-(4-fluorophenoxy)benzyl)-N-methylimidazo[1,2-a]pyridine-3-carboxamide] showed an inhibition at 10 µM of over 69% and a negative-log IC50 (pIC50) of 4.70 to 6.00.

As for `CCc1nc2ccc(Cl)cn2c1C(=O)NCc1ccc(N2CCC(Oc3ccc(Cl)cc3)CC2)cc1` [compound 166, 6-Chloro-N-(4-(4-(4-chlorophenoxy)piperidin-1-yl)benzyl)-2-ethylimidazo[1,2-a]pyridine-3-carboxamide], the inhibition at 10 µM was in the range of 40 to 69%.

As to `CCc1nc2cc(Cl)ccn2c1C(=O)NCc1ccc(N2CCC(Oc3ccc(Cl)cc3)CC2)cc1` [compound 167, 7-Chloro-N-(4-(4-(4-chlorophenoxy)piperidin-1-yl)benzyl)-2-ethylimidazo[1,2-a]pyridine-3-carboxamide], the inhibition at 10 µM is 40 to 69%.

Molecule `CCc1nc2ccc(Cl)cn2c1C(=O)NCc1ccc(N2CCC(Oc3ccc(C(F)(F)F)cc3)CC2)cc1` [compound 168, 6-Chloro-2-ethyl-N-(4-(4-(4-(trifluoromethyl)phenoxy)piperidin-1-yl)benzyl)imidazo[1,2-a]pyridine-3-carboxamide] showed an inhibition at 10 µM of 40 to 69%.

In turn, `CCc1nc2cc(Cl)ccn2c1C(=O)NCc1ccc(N2CCC(Oc3ccc(C(F)(F)F)cc3)CC2)cc1` [compound 169, 7-Chloro-2-ethyl-N-(4-(4-(4-(trifluoromethyl)phenoxy)piperidin-1-yl)benzyl)imidazo[1,2-a]pyridine-3-carboxamide] registered an inhibition at 10 µM of 40 to 69%.

For `CCc1nc2ccc(Cl)cn2c1C(=O)NCc1ccc(OCc2ccc(OC(F)(F)F)cc2)cc1` [compound 170], the inhibition at 10 µM is under 40%.

Turning to `CCc1nc2cc(Cl)ccn2c1C(=O)NCc1ccc(OCc2ccc(OC(F)(F)F)cc2)cc1` [compound 171], the inhibition at 10 µM is under 40%.

The molecule `CCc1nc2ccc(Cl)cn2c1C(=O)NCc1ccc(OCc2ccc(F)cc2)cc1` [compound 172, 6-Chloro-2-ethyl-N-(4-(4-fluorobenzyloxy)benzyl)imidazo[1,2-a]pyridine-3-carboxamide] yielded an inhibition at 10 µM of under 40%.

For `CCc1nc2cc(Cl)ccn2c1C(=O)NCc1ccc(OCc2ccc(F)cc2)cc1` [compound 173, 7-Chloro-2-ethyl-N-(4-(4-fluorobenzyloxy)benzyl)imidazo[1,2-a]pyridine-3-carboxamide], the inhibition at 10 µM lay in the range of 40 to 69%.

These data come from patent US9029389B2 (Institut Pasteur Korea, priority 2011, dated 2015).
